The target in assay [1] is purified recombinant human BTK protein (Homo sapiens (Human), UniProt Q06187). Kind of assay: Measurement of BTK inhibitory activity (in vitro). The assay is classed as biochemical. To be noted: FL-PEPTIDE 2 substrate 1 μM, ATP 45 μM, 40 minutes at 25° C. From the text:
With regard to the setting of the conditions for a method for measuring the inhibitory activity of a compound against BTK kinase activity in vitro, it is described in the consumable reagent supplies price list for LabChip (registered trademark) series of PerkinElmer, Inc. that FL-PEPTIDE 2 corresponds to a substrate peptide for the measurement of BTK kinase activity. Therefore, FL-PEPTIDE 2 was used as a substrate. The purified recombinant human BTK protein used in the test was purchased from Carna Biosciences, Inc.
With regard to the measurement of the inhibitory activity of the compounds, firstly, the compounds of the present invention were diluted stepwise with dimethyl sulfoxide (DMSO). Subsequently, BTK protein, a substrate peptide (final concentration was 1 μM), magnesium chloride (final concentration was 10 mM), ATP (final concentration was 45 μM), and a DMSO solution of the compounds of the present invention (final concentration of DMSO was 5%) were added to a buffer solution for kinase reaction (20 mM HEPES (pH 7.5), 2 mM dithiotheitol, 0.01% Triton X-100), and after the solution was incubated for 40 minutes at 25° C., a kinase reaction was carried out. The reaction was terminated by adding EDTA thereto in order to obtain a final concentration of 30 mM. Finally, a substrate peptide that was not phosphorylated (S) and a phosphorylated peptide (P) were separated and detected by microchannel capillary electrophoresis using a LabChip EZ Reader II (PerkinElmer, Inc.).

A further assay has as its system A431 cells / TMD8 cells. Kind of assay: Proliferation inhibitory activity against cell lines expressing BTK and EGFR (in vitro), comparison of selectivity. The assay is classed as cell-based, human. To be noted: ratio from GI50 (nM), 3 days culture, CELLTITER GLO. From the text: TMD8 cells, which are of a diffuse large B-cell lymphoma cell line expressing BTK, were suspended in RPMI1640 medium (manufactured by Life Technologies Corp.) containing 10% fetal bovine serum. A431 cells, which are of an EGFR-overexpressing, highly activated human epidermoid carcinoma cell line, were suspended in DMEM, high glucose medium (manufactured by Life Technologies Corp.) containing 10% fetal bovine serum. The cell suspensions were inoculated into each well of 384-well flat-bottomed microplates, and the cells were cultured for 1 day at 37° C. in an incubator containing 5% carbon dioxide gas. […] A DMSO solution of the test compounds was diluted with the medium used in the suspension of the each cells, and this was added to each of the wells of the cell culture plates such that the final concentration of DMSO would be 0.2%. The cells were further cultured for 3 days at 37° C. in an incubator containing 5% carbon dioxide gas. […] Proliferation inhibition ratio (%)=(C−T)/(C−C0)×100
T: Luminescence intensity of a well in which the test compound was added
C: Luminescence intensity of a well in which the test compound was not added
C0: Luminescence intensity of a well measured before the addition of the test compound
When a comparison is made between the cell proliferation inhibitory activity against A431 cells that depends on the EGFR proliferation signaling and the cell proliferation inhibitory activity against TMD8 cells that depends on the BTK proliferation signaling, the influence of the respective kinases at a cellular level is able to be evaluated. That is, when the “A431 cell proliferation inhibition ratio/TMD8 cell proliferation inhibition ratio” is calculated, it is contemplated that as the value of the ratio is larger, the selectivity to BTK over EGFR in the cells is higher.
A general note: Cellular ATP, detected with luciferase, serves as a proxy for viable cell number.

purified recombinant human BTK protein, sequence (Q06187 whole entry): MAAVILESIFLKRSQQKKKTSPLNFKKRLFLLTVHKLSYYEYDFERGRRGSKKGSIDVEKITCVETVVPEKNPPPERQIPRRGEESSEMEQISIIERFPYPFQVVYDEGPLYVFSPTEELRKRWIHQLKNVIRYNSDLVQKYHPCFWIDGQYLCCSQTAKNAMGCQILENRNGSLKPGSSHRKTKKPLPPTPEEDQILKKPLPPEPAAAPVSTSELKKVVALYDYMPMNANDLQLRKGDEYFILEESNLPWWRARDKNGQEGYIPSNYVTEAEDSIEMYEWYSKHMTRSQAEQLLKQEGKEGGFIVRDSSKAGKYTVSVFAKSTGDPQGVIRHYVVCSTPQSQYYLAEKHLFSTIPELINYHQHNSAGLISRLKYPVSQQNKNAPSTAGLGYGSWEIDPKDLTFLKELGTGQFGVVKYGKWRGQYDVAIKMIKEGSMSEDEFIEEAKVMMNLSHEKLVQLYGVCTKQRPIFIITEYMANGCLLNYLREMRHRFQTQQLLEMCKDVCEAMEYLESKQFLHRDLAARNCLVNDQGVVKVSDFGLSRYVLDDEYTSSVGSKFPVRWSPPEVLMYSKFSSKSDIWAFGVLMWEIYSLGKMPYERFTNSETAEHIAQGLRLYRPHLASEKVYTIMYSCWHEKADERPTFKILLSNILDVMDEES

A word on the IC50: it is the concentration needed to halve the response being measured. Take `CCN(C)C/C=C/C(=O)N1CC[C@@H](n2nc(C(=O)Nc3nc4cc(Cl)ccc4o3)c3c(N)ncnc32)C1` [Example 33, (R,E)-4-amino-N-(5-chlorobenzo[d]oxazol-2-yl)-1-(1-(4-(ethyl(methyl)amino)but-2-enoyl)pyrrolidin-3-yl)-1H-pyrazolo[3,4-d]pyrimidine-3-carboxamide]: in assay [1], the concentration for half-maximal inhibition (IC50) was found to be 0.887 nM.

For the compound `C=CC(=O)N1CCC[C@@H](n2nc(C(=O)Nc3nc4cc(C)c(C)cc4o3)c3c(N)ncnc32)C1` [Example 23, (R)-1-(1-acryloylpiperidin-3-yl)-4-amino-N-(5,6-dimethylbenzo[d]oxazol-2-yl)-1H-pyrazolo[3,4-d]pyrimidine-3-carboxamide], the IC50 in assay [1] came out at 1.58 nM. For the same compound, in the assay with A431 cells / TMD8 cells, the “A431 cell proliferation inhibition ratio/TMD8 cell proliferation inhibitio ratio” value was greater than 10680. As to `CN(C)C/C=C/C(=O)N1CCC[C@@H](n2nc(C(=O)Nc3nc4cc(-c5cccs5)ccc4o3)c3c(N)ncnc32)C1` [Example 21, (R,E)-4-amino-N-(5-(thiophen-2-yl)benzo[d]oxazol-2-yl)-1-(1-(4-(dimethylamino)but-2-enoyl)piperidin-3-yl)-1H-pyrazolo[3,4-d]pyrimidine-3-carboxamide], in the assay with A431 cells / TMD8 cells, the “A431 cell proliferation inhibition ratio/TMD8 cell proliferation inhibitio ratio” value was determined as 4909.1. As to `C=CC(=O)N1CC(n2nc(C(=O)Nc3nc4ccccc4o3)c3c(N)ncnc32)C1` [Example 74, 1-(1-acryloylazetidin-3-yl)-4-amino-N-(benzo[d]oxazol-2-yl)-1H-pyrazolo[3,4-d]pyrimidine-3-carboxamide], the IC50 in assay [1] was 21.4 nM.

As to `C=CC(=O)N1CC[C@@H](n2nc(C(=O)Nc3nc4cc(-c5ccc(Cl)cc5)ccc4o3)c3c(N)ncnc32)C1` [Example 31, (R)-1-(1-acryloylpyrrolidin-3-yl)-4-amino-N-(5-(4-chlorophenyl)benzo[d]oxazol-2-yl)-1H-pyrazolo[3,4-d]pyrimidine-3-carboxamide], in assay [1], the IC50 is 1.67 nM. Still for that read-out and setting: the figure for `CCN(CC)C/C=C/C(=O)N1CC[C@@H](n2cc(C(=O)Nc3nc4cc(-c5ccccc5)ccc4o3)c3c(N)ncnc32)C1` [Example 58, (R,E)-4-amino-N-(5-phenylbenzo[d]oxazol-2-yl)-7-(1-(4-(diethylamino)but-2-enoyl)pyrrolidin-3-yl) 7H-pyrrolo[2,3-d]pyrimidine-5-carboxamide] is 1.84 nM. As for `C=CC(=O)N1CCC(n2nc(C(=O)Nc3nc4cc(Cl)ccc4o3)c3c(N)ncnc32)C1` (stereo not shown) [Example 84, 1-(1-acryloylpyrrolidin-3-yl)-4-amino-N-(5-chlorobenzo[d]oxazol-2-yl)-1H-pyrazolo[3,4-d]pyrimidine-3-carboxamide], the “A431 cell proliferation inhibition ratio/TMD8 cell proliferation inhibitio ratio” value in the assay with A431 cells / TMD8 cells is recorded as greater than 7132.7. Same read-out and setting: the figure for `C/C=C/C(=O)N1CCC[C@@H](n2nc(C(=O)Nc3nc4ccccc4o3)c3c(N)ncnc32)C1` [Example 14, (R,E)-4-amino-N-(benzo[d]oxazol-2-yl)-1-(1-(but-2-enoyl)piperidin-3-yl)-1H-pyrazolo[3,4-d]pyrimidine-3-carboxamide] is greater than 1400.6. Regarding `C=CC(=O)N1CCC[C@@H](n2nc(C(=O)Nc3nc4cc(-c5cccs5)ccc4o3)c3c(N)ncnc32)C1` [Example 3, (R)-1-(1-acryloylpiperidin-3-yl)-4-amino-N-(5-(thiophen-2-yl)benzo[d]oxazol-2-yl)-1H-pyrazolo[3,4-d]pyrimidine-3-carboxamide], the IC50 in assay [1] turned out to be 0.443 nM. As for `C=CC(=O)N1CCC[C@@H](n2nc(C(=O)Nc3nc4cc(CCOC)ccc4o3)c3c(N)ncnc32)C1` [Example 8, (R)-1-(1-acryloylpiperidin-3-yl)-4-amino-N-(5-(2-methoxyethyl)benzo[d]oxazol-2-yl)-1H-pyrazolo[3,4-d]pyrimidine-3-carboxamide], in the assay on A431 cells / TMD8 cells, the “A431 cell proliferation inhibition ratio/TMD8 cell proliferation inhibitio ratio” value is reported as 25303.8. `C=CC(=O)N1CC[C@@H](n2nc(C(=O)Nc3nc4cc(OC)ccc4o3)c3c(N)ncnc32)C1` [Example 38, (R)-1-(1-acryloylpyrrolidin-3-yl)-4-amino-N-(5-methoxybenzo[d]oxazol-2-yl)-1H-pyrazolo[3,4-d]pyrimidine-3-carboxamide]: the “A431 cell proliferation inhibition ratio/TMD8 cell proliferation inhibitio ratio” value in the assay with A431 cells / TMD8 cells amounted to 2868.1. Take `C=CC(=O)N1CC[C@@H](n2nc(C(=O)Nc3nc4cc(C(F)(F)F)ccc4o3)c3c(N)ncnc32)C1` [Example 43, (R)-1-(1-acryloylpyrrolidin-3-yl)-4-amino-N-(5-(trifluoromethyl)benzo[d]oxazol-2-yl)-1H-pyrazolo[3,4-d]pyrimidine-3-carboxamide]: in assay [1], the half-maximal inhibitory concentration (IC50) turned out to be 0.546 nM. Turning to `C=CC(=O)N1CCC[C@@H](n2nc(C(=O)Nc3nc4cc(OC)ccc4o3)c3c(N)ncnc32)C1` [Example 7, (R)-1-(1-acryloylpiperidin-3-yl)-4-amino-N-(5-methoxybenzo[d]oxazol-2-yl)-1H-pyrazolo[3,4-d]pyrimidine-3-carboxamide], in the assay with A431 cells / TMD8 cells, the “A431 cell proliferation inhibition ratio/TMD8 cell proliferation inhibitio ratio” value is on record as 5440.9.

For the compound `C=CC(=O)N1CCC[C@@H](n2nc(C(=O)Nc3nc4cccc(Cl)c4o3)c3c(N)ncnc32)C1` [Example 64, (R)-1-(1-acryloylpiperidin-3-yl)-4-amino-N-(7-chlorobenzo[d]oxazol-2-yl)-1H-pyrazolo[3,4-d]pyrimidine-3-carboxamide], the 50% inhibitory concentration (IC50) in assay [1] was determined as 8.09 nM. Take `C=CC(=O)N1CC[C@@H](n2nc(C(=O)Nc3nc4cc(-c5ccccc5)ccc4o3)c3c(N)ncnc32)C1` [Example 41, (R)-1-(1-acryloylpyrrolidin-3-yl)-4-amino-N-(5-phenylbenzo[d]oxazol-2-yl)-1H-pyrazolo[3,4-d]pyrimidine-3-carboxamide]: in the assay with A431 cells / TMD8 cells, the “A431 cell proliferation inhibition ratio/TMD8 cell proliferation inhibitio ratio” value was 1667.7. For the compound `C=CC(=O)N1CC[C@@H](n2cc(C(=O)Nc3nc4cc(-c5ccccc5)ccc4o3)c3c(N)ncnc32)C1` [Example 55, (R)-7-(1-acryloylpyrrolidin-3-yl)-4-amino-N-(5-phenylbenzo[d]oxazol-2-yl)-7H-pyrrolo[2,3-d]pyrimidine-5-carboxamide], the IC50 in assay [1] was determined as 0.799 nM. The same measure, in the same setting: the same measure for `C=CC(=O)N1CCC(n2nc(C(=O)Nc3nc4ccccc4o3)c3c(N)ncnc32)CC1` [Example 69, 1-(1-acryloylpiperidin-4-yl)-4-amino-N-(benzo[d]oxazol-2-yl)-1H-pyrazolo[3,4-d]pyrimidine-3-carboxamide]: 162 nM; for `CC1=CC(C)=[N+]2C1=Cc1ccc(CCC(=O)NCCN3CCN(C/C=C/C(=O)N4CCC[C@@H](n5nc(C(=O)Nc6nc7ccccc7o6)c6c(N)ncnc65)C4)CC3)n1[B-]2(F)F` [Example P-1, (R,E)-7-(3-((2-(4-(4-(3-(4-amino-3-(benzo[d]oxazol-2-ylcarbamoyl)-1H-pyrazolo[3,4-d]pyrimidin-1-yl)piperidin-1-yl)-4-oxobut-2-en-1-yl)piperazin-1-yl)ethyl)amino)-3-oxopropyl) 5,5-difluoro-1,3-dimethyl-5H-dipyrrolo[1,2-c:2′,1′-f][1,3,2]diazaborinin-4-ium-5-uide]: 31.4 nM. With `C=CC(=O)N1CC[C@@H](n2nc(C(=O)Nc3nc4ccccc4o3)c3c(N)ncnc32)C1` [Example 27, (R)-1-(1-acryloylpyrrolidin-3-yl)-4-amino-N-(benzo[d]oxazol-2-yl)-1H-pyrazolo[3,4-d]pyrimidine-3-carboxamide], the “A431 cell proliferation inhibition ratio/TMD8 cell proliferation inhibitio ratio” value with A431 cells / TMD8 cells is listed as 4155.9.

As for `C=CC(=O)N1CC[C@H](n2nc(C(=O)Nc3nc4ccccc4o3)c3c(N)ncnc32)C1` [Example 65, (S)-1-(1-acryloylpyrrolidin-3-yl)-4-amino-N-(benzo[d]oxazol-2-yl)-1H-pyrazolo[3,4-d]pyrimidine-3-carboxamide], the IC50 in assay [1] was determined as 79 nM. On the same count and under the same terms, the same measure for `Nc1ncnc2c1c(C(=O)Nc1nc3ccccc3o1)nn2[C@@H]1CCCN(C(=O)/C=C/CN2CCN(CCNC(=O)CCCC[C@@H]3SC[C@@H]4NC(=O)N[C@@H]43)CC2)C1` [Example P-2, 4-amino-N-(benzo[d]oxazol-2-yl)-1-((R)-1-((E)-4-(4-(2-(5-((3aS,4S,6aR)-2-oxohexahydro-1H-thieno[3,4-d]imidazol-4-yl)pentanamido)ethyl)piperazin-1-yl)but-2-enoyl)piperidin-3-yl)-1H-pyrazolo[3,4-d]pyrimidine-3-carboxamide]: 43.9 nM.

Values taken from patent US9580432B2, “Fused pyrimidine compound or salt thereof” (TAIHO PHARMACEUTICAL CO., LTD., priority 2013, dated 2017).
